One data set relates to human RPE cells. The data set can be described thus: Oxidative-stress and Erastin induced cell death in human RPE cells. The class given is cell-based.
A further data set deals with RPE single-cells. Description: UOS-induced transcriptome changes in RPE single-cells. It is filed as cell-based. The source says:
Dots in box plots represent expression of the gene for a single RPEC (total of 96 per sample). P<0.001 (***), P<0.01 (**), One-way Anova, with Post-Hoc Tukey HSD test for multiple comparisons.

In the next data set the test system is RPE and PRC. The data set can be described thus: Subretinal injection of OAβ in WT mice +/- ELVs (RPE flat mount, OCT, qPCR, Western blot). The class given is in vivo. To be noted: for OAβ-activated senescence program (p16INK4a, MMP1, p53, p21, p27, Il-6, SASP secretome) followed by RPE and PRC demise: summary of mouse and human RPE data. The text has this:
(A) In vivo experimental design: 6-month-old C57BL/6J WT mice were divided into 7 groups (n=12/group): non-injected, PBS, OAβ only, OAβ+ELV-N-32, OAβ+ELV-N-34, ELV-N-32 only and ELV-N-34 only. On day 3, mRNA were isolated for Real-Time PCR. On day 7, mice were subjected to OCT and then eyes enucleated and processed for whole mount RPE staining and Western blots. (B) Whole flat mount of RPE with tight junction marker, Zonula occludens-1 (ZO-1) antibody. OAβ disrupted RPE morphology. (C) OAβ effects on retina and RPE by OCT. (D) Thickness of PRC layer was thinner in OAβ injected group. (E) RPE gene expression after Oaβ (1-42) injection and treatment with ELVs. (E-G) Gene expression in the same functional group were plotted. Senescence- and AMD-related genes (E), and collagenases, gelatinase, stromelysins and others matrix metalloproteinases (MMP) (F) and autophagy (G). (H) p16INK4a, a key marker for senescence, western blots of RPE. (I) Retina apoptosis gene expression after OAβ (1-42) injection and treatment with ELVs. (*P<0.05, student t-test).
ELVs restore RPE morphology and reduce gene expression after subretinal injection of OAβ in WT mice. (A) Mice were divided into 7 groups: non-injected, PBS, OAβ only, OAβ+ELV-N-32, OAβ+ELV-N-34, ELV-N-32 only and ELV-N-34 only. On day 3, mRNA were isolated for RT-PCR. On day 7, mice were subjected to OCT and then eyes were enucleated and processed to whole mount RPE staining and Western blot. (B) Whole flat mount of RPE. OAβ disrupted RPE morphology. However, RPE were less damage in the ELVs treatment group as well as PBS, ELVs alone did non induce changes. (C) Evaluation the OAβ effects on retina and RPE by OCT. (D) The thickness of PRC was thin in the OAβ injected group. OAβ cause the cell death of PRC, as the thinner in OCT measurement. (E) RPE gene expression after OAβ (1-42) injection and treatment with ELVs. 3 days after injection, the RNAs from RPE were isolated, reverse transcribed into cDNA and subjected to RT-PCR with different primers. Genes in the same functional group were plotted in the same chart, including senescence- and AMD-related genes (E), and collagenases, gelatinase, stromelysins and others matrix metalloproteinases (MMP) (F) and autophagy (G). (H) p16INK4a western blots of RPE/Choroid. […] (I) Retina gene expression after OAβ (1-42) injection and treatment with ELVs. OAβ activates apoptosis genes in the retina. […] (*P<0.05, using student t-test comparison).
All animal experiments were performed according to ARVO Statement for the Use of Animals in Ophthalmic and Vision Research, and the protocol was approved by LSU Health New Orleans' Institutional Animal Care and Use Committee (IACUC). 6-month-old 5×FAD mice (stock number: 34848-JAX, The Jackson Laboratory, Bar Harbor, Me., USA), co-overexpress FAD mutant forms of human amyloid precursor protein (the Swedish mutation: K670N, M671L; the Florida mutation: I716V; and the London mutation: V7171) and presenilin 1 (PS1, encoded by Psen1: M146L, L286V) transgenes under transcriptional control of the neuron-specific mouse Thy1 promoter. 5×FAD mice were hemizygotes with respect to the transgenes and non-transgenic WT littermates. Genotyping was performed by PCR of tail DNA. All analyses were carried out blind with respect to the mice genotype. For the subretinal injection, 6-month-old C57BL/6J mice were anesthetized by an intraperitoneal injection of ketamine/xylazine, pupils dilated with 1.0% tropicamide (Akorn, Ill., USA); and 0.5% Proparacaine Hydrochloride (Akorn) was applied for topical anesthesia. Eyes were punctured with a 30-gauge needle between the corneoscleral junction and the ora serrata into the vitreous cavity without disturbing the lens. Compounds were delivered to the subretinal region using a 33-gauge blunt needle attached to a 5p.1 Hamilton syringe (Hamilton Company, Reno, Nev., USA) under a dissecting microscope. Non-injected mice were used as negative control while the PBS injected mice were used for sham. […]

In the next data set the test system is primary human RPE cells. The data set can be described thus: Primary human RPE cells treated with 10 μM OAβ +/- ELVs (SA-β-Gal staining, qPCR). The class given is cell-based. To be noted: 3 days qPCR, 7 days staining. On the procedure:
(A) In vitro experimental design: Primary human RPE cells were treated with 10 μM OAβ+/−ELVs. After 3 days, RNA was isolated and qPCR analyzed. After 7 days, cells were subjected to β-Galactosidase staining. (B) Live cell images under bright field microscopy after 7 days. (C) β-Gal staining+/−ELVs. Quantitation of % for the β-Gal positive cells. ELVs decreased positive senescent cells. (D) Gene transcription of senescence, AMD-related and autophagy genes after OAβ (1-42) exposure+/−ELVs. (*P <0.05, student t-test).
OAβ toxicity is counteracted by ELVs in primary hRPE. (A) Primary hRPE cells were treated with 10 μM OAβ with or without adding ELVs. After 3 days, the total RNA was isolated and q-PCR analyzed. After 7 days, cells were subjected to β-Galactosidase staining. (B) Live cell images of primary hRPE under bright field microscope imaging after 7 days. (C) β-Galactosidase staining of primary hRPE, +/−ELVs. Quantitation of % for the β-Gal positive cells. ELVs decreased positive senescent cells. […]
Cells were visualized using SA-β-Gal staining kit (Cat 9860, Cell Signaling Technology, MA, USA). […] Pictures were taken under brightfield microscope (Nikon Eclipse TS100) 200× magnification after the development of blue color, and cells counted in 10 different random fields per well. […]

For data set [1] the following is noted: methyl ester or sodium salt; administered 1 hour following 2 hours of ischemia; cited from earlier work.
Another data set has as its system hypothalamic neurons. Description: Microelectrode array (MEA) recording of organotypic hypothalamic slices. It is filed as cell-based, Leprdb (db/db diabetic) mice. To be noted: 500 nM; db/db male and female mice. On the procedure: We determined whether ex vivo organotypic culture of hypothalamic slices (200 μm in thickness) obtained from brains of C57BL/6J (WT) mice and age matched Leprdb (db/db diabetic) mice were electrically active and capable of firing trains of action potentials using Maestro microelectrode arrays (MEA) performed with MaestroPro MEA system from Axion Biosystems, GA.
MEA measurements were carried out using a 48-well Microelectrode array (MEA) plate (M768-tMEA-48W) from Axion Biosystems, GA. Each well of the MEA plate, contained a 4×4 grid of […] circular nanoporous PEDOT electrodes embedded in the cell culture substrate, with a pole-to-pole electrode spacing of […]. In preparation for seeding hypothalamic slices, the wells were treated with 0.1% polyethylenimine (PEI) in sodium borate buffer, pH 8.4. Wells were then pre-coated in laminin (6 μg/mL) and the hypothalamic slices (200 μm in thickness) were plated on the electrode grid. […]
Extracellular recordings of spontaneous action potentials were performed in culture medium at 37° C. using the standard neural setting of the MaestroPro MEA system and AxIS software version 1.5.1.12. […] Recorded spike number per electrode were averaged after disregarding noisy electrodes from analysis. […]
Using the MEA system, population level electrical activity was recorded from different hypothalamic neurons. […]

The mark [2] stands for this setting: co-injected with OAβ subretinally, then topical ELV, day 7.

In the case of `CC/C=C\C[C@H](O)\C=C/C=C/C=C/[C@H](O)C/C=C\C/C=C\CCC(=O)O` [NPD1, 10R,17S-dihydroxy-docosa-4Z,7Z,11E,13E,15Z,19Z-hexaenoic acid, reference compound], the “oxidative-stress and Erastin induced cell deaths” value with human RPE cells is listed as “counteracted”. The “UOS-induced up-regulation of pro-inflammatory transcriptome and down-regulation of pro-homeostatic pathways” value in the data set with RPE single-cells is “suppress these changes”.
Turning to `CC/C=C\C[C@H](O)\C=C/C=C/C=C/[C@H](O)C/C=C\C/C=C\CCCCCCCCCCCCC(=O)O` [ELV-N-32], the “PRC degeneration / ONL after ELV injected alone” value in the data set with RPE and PRC (ELV alone, no OAβ, subretinal) was “did not yield PRC degeneration”. In the data set with RPE and PRC (setting [2]), the “PRC protection (PRC layer, OCT)” value is “protection of PRC” and the “RPE morphology (ZO-1 whole flat mount)” value was “restoration of RPE morphology”. Besides, the “p16INK4a protein (western blot of RPE/Choroid)” value in the data set on RPE and PRC (elevated by OAβ injection, day 7) is “down regulated”. Further, in the data set on RPE and PRC, the “OAβ-activated senescence program (p16INK4a, MMP1, p53, p21, p27, Il-6, SASP secretome) followed by RPE and PRC demise” value (“OAβ-activated senescence program” below) was “blunt these events and elicit protection to both cells”. Besides, the “OAβ-activated senescence program” value in the data set on RPE and PRC (listed as ELV 32) is listed as “downregulatory mediators of OAβ-evoked senescence”. For the same compound, the “OAβ-activated senescence program” value with RPE and PRC (listed as elovanoid 32) was “blunt these events and elicits protection”. The “OAβ effects: RPE cell morphology, SASP (SA-β-Gal), senescence, AMD, MMP and autophagy gene expression” value in the data set with primary human RPE cells is recorded as “reverted these effects”. Also, in the data set with human RPE cells, the “oxidative-stress and Erastin induced cell deaths” value is on record as “counteracted”. In the data set with RPE single-cells, the “UOS-induced up-regulation of pro-inflammatory transcriptome and down-regulation of pro-homeostatic pathways” value is recorded as “suppress these changes”. In data set [1], the cell survival result is recorded as “promoted cell survival”, the infarct volumes result is on record as “reduced infarct volumes” and the neurovascular unit disruption entry was “diminished neurovascular unit disruption”.
Regarding `CC/C=C\C[C@H](O)\C=C/C=C/C=C/[C@H](O)C/C=C\C/C=C\CCCCCCCCCCCCCCC(=O)[O-].[Na+]` [ELV-34-6 Na, sodium (16Z,19Z,22R,23E,25E,27Z,29S,31Z)-22,29-dihydroxytetratriaconta-16,19,23,25,27,31-hexaenoate], the “spiking activity of hypothalamic slices (MEA)” value in the data set on hypothalamic neurons is listed as “synchronous spiking is restored”.
Turning to “OAβ: oligomerized Aβ (1-42) peptide, used as cytotoxic stressor [reference compound]”, the “PRC layer thickness (OCT)” value with RPE and PRC (OAβ-injected retina, non-injected retina 105 μm) turned out to be 35 μm.

(Values after patent publication US20220339134A1, “VERY-LONG-CHAIN POLYUNSATURATED FATTY ACIDS, ELOVANOID HYDROXYLATED DERIVATIVES, AND METHODS OF USE” (Board of Supervisors of Louisiana State University and …, priority 2019, published 2022).)
